In brackets after ≈: the same amount, converted by molar mass. Structures can show the parent of a compound that is named as a salt. Where two headings read alike, the source gives them in different places.

The source of these data is patent US8394792B2, “Heterocyclic derivatives” (C&C Research Laboratories, priority 2008, dated 2013).

In series [1] the target is T1, CYP2C9 (Homo sapiens, UniProt P11712).
The conditions of series [2]: cited from earlier work; for excretion rate in urine: until 72 hours after administration of benzbromarone.
A further series concerns Cebus monkey. The series can be described thus: Test for uricosuric effect in Cebus monkey. The class given is in vivo. As to conditions: for Plasma uric acid level: 4 hours after administration.
Series [3] concerns the target T1, CYP2C9. Briefly: biochemical.
Series [4] in a line: Test for solubility according to pH. The format is physicochemical. To be noted: 37° C. 2 hours; for solubility at 2 h: thermodynamic from solid.
Description: 2.0 g of sodium chloride was dissolved in 7.0 mL of hydrochloric acid and water to make the total volume of 1000 mL. This solution was colorless and clear. Its pH was about 1.2.
To 250 mL of 0.2 mol/L potassium dihydrogen phosphate solution, 118 mL of 0.2 mol/L sodium hydroxide solution and water were added to make the total volume of 1000 mL. This solution was colorless and clear. Its pH was about 6.8.
For the compounds of present invention prepared in the examples, the test samples were prepared in each of the first and second solutions with 2 mg/mL concentration. This test sample solution was agitated for 10 seconds, sonicated for 1 minute and heated at 37° C. for 2 hours. The heated test sample solution was filtered to remove undissolved compounds therein. From filtered solution, 100 μl of the completely dissolved solution was sampled and 100 μl of acetonitrile was added thereto to make test sample solution. For each analysis of test sample solution, the solubility was measured by using liquid chromatography.
Another series addresses T2, hURAT1 (Homo sapiens, UniProt Q96S37).
T2 construct: expressed in transfected cells; host or cells: HEK293 (human kidney cell line), transient transfection with Fugene6
T2 sequence (Q96S37 1-553): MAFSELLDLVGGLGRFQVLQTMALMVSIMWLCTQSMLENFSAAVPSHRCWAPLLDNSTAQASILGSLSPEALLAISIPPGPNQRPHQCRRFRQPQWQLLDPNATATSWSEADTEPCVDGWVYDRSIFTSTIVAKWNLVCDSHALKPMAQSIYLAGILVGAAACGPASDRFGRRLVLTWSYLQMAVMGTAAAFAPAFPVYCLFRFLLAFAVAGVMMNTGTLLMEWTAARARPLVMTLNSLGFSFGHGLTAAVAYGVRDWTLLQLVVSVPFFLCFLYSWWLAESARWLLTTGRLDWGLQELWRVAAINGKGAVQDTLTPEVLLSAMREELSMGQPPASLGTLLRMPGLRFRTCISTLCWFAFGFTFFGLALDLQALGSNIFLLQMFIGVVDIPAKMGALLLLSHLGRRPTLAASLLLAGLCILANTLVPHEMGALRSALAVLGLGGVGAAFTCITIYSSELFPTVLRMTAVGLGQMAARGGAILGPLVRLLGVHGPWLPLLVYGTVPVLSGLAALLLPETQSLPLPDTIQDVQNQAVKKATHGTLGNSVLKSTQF
Briefly: Test for inhibiting urate reuptake activity via hURAT1 (uric acid transport assay in hURAT1-overexpressed HEK293 cell line). To be noted: hURAT1-overexpressed HEK293 cells, [14C]-uric acid uptake, 100 μM uric acid. The format is cell-based.

The mark [5] stands for this setting: 2 tablets (50 mg/tablet) benzbromarone one time, healthy fasting adult.
[6] abbreviates: oral 15 mg/kg, during 0~8 hours.
[7] abbreviates: 37 °C, pH 1.2, simulated gastric fluid, first solution pH about 1.2, 2 mg/mL, read-out: Solubility (μg/mL) pH 1.2.
[8] abbreviates: second solution pH about 6.8, 2 mg/mL.
The mark [9] stands for this setting: read-out: IC50 (μM) hURAT, level of uric acid reuptake inhibition.
Where [10] appears, read: 37 °C, pH 6.8, aqueous buffer, second solution pH about 6.8, 2 mg/mL, read-out: Solubility (μg/mL) pH 6.8.
[11] abbreviates: first solution pH about 1.2, 2 mg/mL.

T1 sequence (P11712 whole entry): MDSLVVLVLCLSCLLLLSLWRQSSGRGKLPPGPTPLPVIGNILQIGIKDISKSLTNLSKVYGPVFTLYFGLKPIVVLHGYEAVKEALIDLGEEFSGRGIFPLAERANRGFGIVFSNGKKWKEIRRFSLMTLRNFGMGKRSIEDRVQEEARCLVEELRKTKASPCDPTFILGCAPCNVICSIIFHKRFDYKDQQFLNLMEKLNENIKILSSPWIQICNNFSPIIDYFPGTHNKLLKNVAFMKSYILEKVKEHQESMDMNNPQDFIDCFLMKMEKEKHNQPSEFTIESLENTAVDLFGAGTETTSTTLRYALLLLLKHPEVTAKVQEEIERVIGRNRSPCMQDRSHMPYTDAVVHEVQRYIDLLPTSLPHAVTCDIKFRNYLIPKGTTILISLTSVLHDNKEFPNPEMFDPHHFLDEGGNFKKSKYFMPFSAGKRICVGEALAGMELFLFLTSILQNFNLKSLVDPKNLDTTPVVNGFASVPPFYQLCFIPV

In general, IC50 refers to the concentration that inhibits the measured activity by half. On CYP2C9 [1], `O=C(CN1C(=O)COc2ccncc21)c1cc(Br)c(O)c(Br)c1` [Compound 56] came in with an IC50 greater than 20000 nM.
For `CCc1oc2ccccc2c1C(=O)c1cc(Br)c(O)c(Br)c1` [Benzbromarone, reference compound], in series [2] (setting [5]), the “area under the curve (AUC)” value is 15900 ± 3300 ng·h/mL, the half-life of drug was 5.4 ± 1.9 h and the “time of maximum drug concentration in blood (Tmax)” value is 2.7 ± 1.0 h. In addition, in series [2], the “excretion rate in urine” value is given as “not detected”. The “Plasma uric acid level” value in the series with Cebus monkey (oral 15 mg/kg) was determined as 3.80 mg/dL. Also, the “Fractional excretion rate of uric acid (FEua)” value in the series on Cebus monkey (setting [6]) was 20.0±10.5%.
Regarding `Br.O=C(c1cc(Br)c(O)c(Br)c1)N1CCOc2ccncc21` [Compound 3, (3,5-dibromo-4-hydroxy-phenyl)-(2,3-dihydro-pyrido[4,3-b][1,4]oxazin-4-yl)-methanone bromic acid salt], the IC50 worked out at 24500 nM on CYP2C9 [3] and 0.0165 µM on hURAT1 (IC50 (μM) hURAT, level of uric acid reuptake inhibition). Besides, the solubility at 2 h in series [4] (pH 1.2, simulated gastric fluid, first solution pH about 1.2, 2 mg/mL, read-out: Solubility (μg/mL) pH 1.2) is 1420 µg/mL; in series [4] (pH 6.8, aqueous buffer, second solution pH about 6.8, 2 mg/mL, read-out: Solubility (μg/mL) pH 6.8), 886 µg/mL. Also, the “enhanced uricosuric activity compared to the compound disclosed in WO2006/057460” value in the series on Cebus monkey (comparison test) is given as 180%.
As for `O=C(c1cc(Cl)c(O)c(Cl)c1)N1CCOc2cnccc21` [Compound 15, (3,5-dichloro-4-hydroxy-phenyl)-(2,3-dihydro-pyrido[3,4-b][1,4]oxazin-1-yl)-methanone bromic acid salt], the IC50 amounted to 4500 nM on CYP2C9 [3] and 0.458 µM on hURAT1 (setting [9]). In addition, the solubility at 2 h in series [4] (setting [7]) is 1510 µg/mL. Besides, the “Solubility (μg/mL) pH 6.8” value in series [4] (setting [8]) came out at 453 μg/mL.
Take `O=C(Cc1cc(Br)c(O)c(Br)c1)N1CCOc2ccncc21` [Compound 42, 2-(3,5-dibromo-4-hydroxy-phenyl)-1-(2,3-dihydro-pyrido[4,3-b][1,4]oxazin-4-yl)-ethanone]: the IC50 at CYP2C9 [3] worked out at 18400 nM; at hURAT1 (setting [9]), 0.2 µM. For the same compound, the solubility at 2 h in series [4] (setting [7]) is 1310 µg/mL (≈ 3060 µM); in series [4] (setting [10]), 143 µg/mL (≈ 333 µM).
The corresponding values for `O=C(c1cc(Br)c(O)c(Br)c1)N1CCOc2ncccc21` [Compound 1, (3,5-dibromo-4-hydroxy-phenyl)-(2,3-dihydro-pyrido[2,3-b][1,4]oxazin-1-yl)-methanone] are 12100 nM, 0.079 µM, 56.1 µg/mL (≈ 135 µM) and 277 µg/mL (≈ 669 µM).
On to `O=C(c1cc(Br)c(O)c(Br)c1)N1CCOc2ccncc21` [Compound 4, (3,5-dibromo-4-hydroxy-phenyl)-(2,3-dihydro-pyrido[4,3-b][1,4]oxazin-4-yl)-methanone], for which the IC50 against CYP2C9 [3] worked out at 24300 nM; at hURAT1 (setting [9]), 0.023 µM. In series [4] (setting [11]), the “Solubility (μg/mL) pH 1.2” value came out at 1927 μg/mL. Besides, the “Solubility (μg/mL) pH 6.8” value in series [4] (setting [8]) came to 970 μg/mL. In addition, in the series on Cebus monkey (15 mg/kg, during 0~8 hours), the “enhanced uricosuric effect compared with Benzbromarone” value was 160%. Moreover, the “Plasma uric acid level” value in the series with Cebus monkey (oral 3.75 mg/kg) is listed as 3.88 mg/dL; in the series with Cebus monkey (oral 7.5 mg/kg), 3.66 mg/dL; in the series with Cebus monkey (oral 15 mg/kg), 3.40 mg/dL. The “Fractional excretion rate of uric acid (FEua)” value in the series with Cebus monkey (oral 3.75 mg/kg, during 0~8 hours) was found to be 24.1±13.3%; in the series on Cebus monkey (oral 7.5 mg/kg, during 0~8 hours), 31.6±13.3%; in the series with Cebus monkey (setting [6]) it was 33.2±19.8%.
On to `CCc1oc2cc(O)ccc2c1C(=O)c1cc(Br)c(O)c(Br)c1` [6-hydroxy benzbromarone], for which, in series [2] (setting [5]), the half-life of drug is 18.0 ± 2.9 h, the “maximum concentration of drug (Cmax)” value was 1700 ± 400 ng/mL and the “time of maximum drug concentration in blood (Tmax)” value was 4.8 ± 1.3 h. Further, in series [2], the “excretion rate in urine” value is 1.2 % of the administered amount.
As to `O=C(c1ccc(O)c(C(F)(F)F)c1)N1CCOc2ccncc21` [Compound 12, (2,3-dihydro-pyrido[4,3-b][1,4]oxazin-4-yl)-(4-hydroxy-3-trifluoromethyl-phenyl)-methanone], the half-inhibitory concentration (IC50) on CYP2C9 [3] is greater than 60000 nM; on hURAT1 (setting [9]) it was 0.0408 µM. Besides, the solubility at 2 h is 1880 µg/mL (≈ 5800 µM) in series [4] (setting [7]) and 132 µg/mL (≈ 407 µM) in series [4] (setting [10]).
The corresponding values for `O=C(c1cc(Br)c(O)c(Br)c1)N1CCOc2ncncc21` [Compound 62, (3,5-dibromo-4-hydroxy-phenyl)-(6,7-dihydro-pyrimido[4,5-b][1,4]oxazin-5-yl)-methanone] are greater than 20000 nM, 0.128 µM, 34.8 µg/mL (≈ 83.8 µM) and 624 µg/mL (≈ 1500 µM).
Consider `O=C(c1cc(Br)c(O)c(Br)c1)N1CCOc2ncc(C(F)(F)F)cc21` [Compound 22-2, (3,5-dibromo-4-hydroxy-phenyl)-(7-trifluoromethyl-2,3-dihydro-pyrido[2,3-b][1,4]oxazin-1-yl)-methanone], for which the IC50 against CYP2C9 [3] worked out at 9450 nM; at hURAT1 (setting [9]), 0.0043 µM. The solubility at 2 h was less than 0.1 µg/mL in series [4] (setting [7]) and 153 µg/mL (≈ 317 µM) in series [4] (setting [10]).
With `O=S(=O)(c1cc(Br)c(O)c(Br)c1)N1CCOc2ccncc21` [Compound 35-2, 2,6-dibromo-4-(2,3-dihydro-pyrido[4,3-b][1,4]oxazin-4-sulfonyl)-phenol], the IC50 against CYP2C9 [3] is greater than 20000 nM; at hURAT1 (setting [9]), 0.277 µM. For the same compound, the values for the solubility at 2 h in series [4] (setting [7]) and in series [4] (setting [10]) were 1460 µg/mL (≈ 3240 µM) and 234 µg/mL (≈ 519 µM), respectively.
On to `O=C(c1cc(Cl)c(O)c(Cl)c1)N1CCOc2cnccc21` [Compound 41, (3,5-dichloro-4-hydroxy-phenyl)-(2,3-dihydro-pyrido[3,4-b][1,4]oxazin-1-yl)-methanone], for which the IC50 against CYP2C9 [3] is greater than 20000 nM; on hURAT1 (setting [9]), 0.376 µM. In addition, in series [4] (setting [11]), the “Solubility (μg/mL) pH 1.2” value is recorded as 808.87 μg/mL. The “Solubility (μg/mL) pH 6.8” value in series [4] (setting [8]) is on record as 156.54 μg/mL.
In the case of `CC1(C)CN(C(=O)c2cc(Br)c(O)c(Br)c2)c2cnccc2O1` [Compound 8, (3,5-dibromo-4-hydroxy-phenyl)-(2,2-dimethyl-2,3-dihydro-pyrido[4,3-b][1,4]oxazin-4-yl)-methanone], the concentration for half-maximal inhibition (IC50) at CYP2C9 [3] was greater than 20000 nM; at hURAT1 (setting [9]), 0.353 µM. Also, the results for the solubility at 2 h in series [4] (setting [7]) and in series [4] (setting [10]) were 986 µg/mL (≈ 2230 µM) and 344 µg/mL (≈ 778 µM), respectively.
Consider `Cc1ccc2c(n1)OCCN2C(=O)c1cc(Br)c(O)c(Br)c1` [Compound 7, (3,5-dibromo-4-hydroxy-phenyl)-(6-methyl-2,3-dihydro-pyrido[2,3-b][1,4]oxazin-1-yl)-methanone], for which the results for the IC50 on CYP2C9 [3] and on hURAT1 (setting [9]) were greater than 20000 nM and 0.3 µM, respectively. The solubility at 2 h in series [4] (setting [7]) was 106 µg/mL (≈ 247 µM); in series [4] (setting [10]), 109 µg/mL (≈ 255 µM).
With `O=C(c1cc(F)c(O)c(F)c1)N1CCOc2ccncc21` [Compound 29, (3,5-difluoro-4-hydroxy-phenyl)-(2,3-dihydro-pyrido[4,3-b][1,4]oxazin-4-yl)-methanone], the IC50 against CYP2C9 [3] was greater than 20000 nM; on hURAT1 (setting [9]), 0.235 µM. Besides, the solubility at 2 h in series [4] (setting [7]) is 1090 µg/mL (≈ 3720 µM); in series [4] (setting [10]), 382 µg/mL (≈ 1310 µM).
Turning to `COC(=O)COc1c(Br)cc(C(=O)N2CCOc3ccncc32)cc1Br` [Compound 24, (2,6-dibromo-4-(2,3-dihydro-pyrido[4,3-b][1,4]oxazin-4-carbonyl)-phenoxy]-acetic acid methyl ester], the IC50 against CYP2C9 [3] was greater than 20000 nM; at hURAT1 (setting [9]) it was 0.363 µM. Besides, the values for the solubility at 2 h in series [4] (setting [7]) and in series [4] (setting [10]) were 1250 µg/mL (≈ 2580 µM) and 134 µg/mL (≈ 275 µM), respectively.
For `Cc1cnc2c(c1)N(C(=O)c1cc(Br)c(O)c(Br)c1)CCO2` [Compound 27-2, (3,5-dibromo-4-hydroxy-phenyl)-(7-methyl-2,3-dihydro-pyrido[2,3-b][1,4]oxazin-1-yl)-methanone], in that order: greater than 20000 nM, 0.012 µM, 207 µg/mL (≈ 484 µM) and 579 µg/mL (≈ 1350 µM).
